The supplement of paper PMC13380429

Experiments:
Settings in all cases: 72 h
[1] = system: Vero E6; assay: drug sensitivity score (DSS) for viability; higher = more toxic; extreme values may be limits of the assay
[2] = system: HepG2; assay: as above
[3] = system: Caco-2; assay: as above
[4] = system: Calu-3; assay: as above
[5] = system: U2OS; assay: as above
[6] = system: Vero E6; assay: cell viability relative to DMSO; higher = less toxic
[7] = system: HepG2; assay: as above
[8] = system: Caco-2; assay: as above
[9] = system: Calu-3; assay: as above
[10] = system: U2OS; assay: as above
[11] = system: Vero E6; assay: relative viability EC50 (midpoint between 100% and the lowest measured viability); higher = less toxic
[12] = system: HepG2; assay: as above
[13] = system: Caco-2; assay: as above
[14] = system: Calu-3; assay: as above
[15] = system: U2OS; assay: as above

Compound	drug sensitivity score [1]	drug sensitivity score [2]	drug sensitivity score [3]	drug sensitivity score [4]	drug sensitivity score [5]	cell viability ([6]; 1 nM) [%]	cell viability ([6]; 10 nM) [%]	cell viability ([6]; 100 nM) [%]	cell viability ([6]; 1000 nM) [%]	cell viability ([6]; 10000 nM) [%]	cell viability ([7]; 1 nM) [%]	cell viability ([7]; 10 nM) [%]	cell viability ([7]; 100 nM) [%]	cell viability ([7]; 1000 nM) [%]	cell viability ([7]; 10000 nM) [%]	cell viability ([8]; 1 nM) [%]	cell viability ([8]; 10 nM) [%]	cell viability ([8]; 100 nM) [%]	cell viability ([8]; 1000 nM) [%]	cell viability ([8]; 10000 nM) [%]	cell viability ([9]; 1 nM) [%]	cell viability ([9]; 10 nM) [%]	cell viability ([9]; 100 nM) [%]	cell viability ([9]; 1000 nM) [%]	cell viability ([9]; 10000 nM) [%]	cell viability ([10]; 1 nM) [%]	cell viability ([10]; 10 nM) [%]	cell viability ([10]; 100 nM) [%]	cell viability ([10]; 1000 nM) [%]	cell viability ([10]; 10000 nM) [%]	relative viability EC50 [11] [µM]	relative viability EC50 [12] [µM]	relative viability EC50 [13] [µM]	relative viability EC50 [14] [µM]	relative viability EC50 [15] [µM]
C[C@@H](O)[C@H](N)C(=O)N1CCC[C@H]1C(=O)N1CCC[C@H]1C(=O)N[C@H](C(N)=O)[C@@H](C)O [rapastinel]	0	0	0	0	0	97.6	99.5	95	102	114	100	110	91.9	104	97.6	100	88	97.6	97.1	92.6	95.3	101	91.4	96.8	106	95.7	94.4	98.8	95.6	97.3	> 10	> 10	> 10	> 10	> 10
CC(=O)N(C)c1cccc(-c2ccnc3c(C(=O)c4cccs4)cnn23)c1 [indiplon]	0	1.3	0	0	0	105	102	97.1	107	91.3	100	103	97.3	96.7	77.3	100	92.6	93.5	103	92.1	99.4	98.2	91.6	96.3	101	112	99.4	101	96.5	100	> 10	> 10	> 10	> 10	> 10
CC(C)Oc1ccc(-c2nc(-c3cccc4c3CC[C@H]4NCCC(=O)O)no2)cc1C#N [RP-001]	0	0	0	0	0	95	97.7	90.2	101	104	96.9	97.6	94.2	104	110	95	94.7	94.1	95.7	98.2	95.9	99.8	87.5	101	102	102	95.1	103	106	112	> 10	> 10	> 10	> 10	> 10
N#Cc1ccc(N2CCN(C(=O)COc3ccc4[nH]cc(CCN)c4c3)CC2)cc1 [donitriptan]	0	0	0	0	0	95.1	101	98	98.5	107	102	105	94.1	102	94.8	92.4	88.7	89	97.1	104	89	103	107	106	111	101	102	99.4	99.7	107	> 10	> 10	> 10	> 10	> 10
COc1cc(N2CCC(N)CC2)ccc1Nc1ncc(Cl)c(-c2c[nH]c3ccccc23)n1 [AZD3463]	7.4	13.6	8	8	9.6	104	100	102	87.1	4.5	102	102	78.1	41.6	12.7	103	98.2	99.6	64.3	34.9	97.2	88.9	95.1	81.8	9.4	93.5	101	95.1	69.2	2.6	2.08	0.402	0.923	1.73	1.39
COc1ccc(Br)cc1S(=O)(=O)NC(=O)/C=C/c1ccccc1Cc1ccc2ccccc2c1	0	0	0.1	1.7	0	96	98.6	95.3	90.8	101	96.4	96.5	95.8	98.9	102	104	94	99.1	97.8	87.5	94.2	106	88	86.5	97.9	99.9	98.3	94.4	98.9	95.8	> 10	> 10	> 10	> 10	> 10
CCCC(CCC)C(=O)O[C@H]1C[C@H]2CC[C@@H](C1)[N+]2(C)C [anisotropine]	0	0	0	0	0	100	96.1	97.8	96.6	100	102	96.9	99	90.2	102	94.8	95.2	86.6	97.8	99.1	94.7	107	93.9	97.6	92	101	99	90.3	99.9	90.7	> 10	> 10	> 10	> 10	> 10
CO[C@H]1CC=C2CCN3CCC4=C(CC(=O)OC4)[C@]23C1 [NSC-9965]	0	0	0	0	0	92.5	95.8	95	91.6	105	99.9	95	100	100	104	100	99.6	101	105	108	101	102	94.3	101	111	101	105	98.2	106	108	> 10	> 10	> 10	> 10	> 10
CC(=O)NCCc1c(Cc2ccccc2)[nH]c2ccccc12 [luzindole]	0	0	0	0	0	95.9	99	95.1	94.6	97.4	103	99.9	104	95.5	110	97.4	105	106	103	102	98.6	102	105	104	96.2	102	103	100	104	96.9	> 10	> 10	> 10	> 10	> 10
CC(C)N(CC[C@H](c1ccccc1)c1cc(CO)ccc1O)C(C)C [5-hydroxymethyl-tolterodine]	0	0	0	0	0	95.7	96.2	96.6	98.2	101	104	91.6	102	96.5	112	89	87.9	108	102	99.6	104	89.3	96.7	98.6	99.3	101	99.1	105	91.8	95.9	> 10	> 10	> 10	> 10	> 10
O=C(Nc1cccnn1)N1CCC(=Cc2cccc(Oc3ccc(C(F)(F)F)cn3)c2)CC1	0	4.7	0.9	0.2	0	96.1	93.3	93.2	87.3	96.1	99.9	97.5	106	93.3	34.1	100	104	102	96.4	81.4	104	95.3	92	95.3	84.9	94.3	96.2	96.3	97.9	91.2	> 10	2.33	> 10	> 10	> 10
CC(C)(Oc1ccc(C(=O)c2ccc(Cl)cc2)cc1)C(=O)O [fenofibric-acid]	0	0	0	0	0	102	102	101	95.4	97	91.3	96.6	90.9	94.9	90.8	92.4	106	91.9	96.2	105	90.5	94.5	101	102	98.9	103	100	97.5	100	95.5	> 10	> 10	> 10	> 10	> 10
CCCCNc1ncc2c(-c3ccc(CN4CCN(C)CC4)cc3)cn([C@H]3CC[C@H](O)CC3)c2n1 [UNC2025]	7.2	10.5	4.3	5.7	10.5	95.3	101	100	73.3	34.6	88.6	94	92	54.7	5.2	88.5	103	97.3	95.5	33.6	98.5	99.7	100	87.1	34.2	98.4	103	97	60.3	0.3	1.16	1.02	2.62	1.75	1.21
N#CC1(c2ccc(NC(=O)c3cccnc3NCc3ccncc3)cc2)CCCC1 [apatinib]	0	1.9	0	0	0	96.5	92	98.3	97.1	109	103	105	107	89.5	77.8	92.3	94.1	93.5	101	94.1	92.9	94.5	104	97.5	104	97.4	104	98	99.2	99.6	> 10	> 10	> 10	> 10	> 10
CN[C@@H](C)C(=O)N[C@H](C(=O)N1CCC[C@H]1c1nc(C(=O)c2ccc(F)cc2)cs1)C1CCCCC1 [LCL-161]	0	1.8	0	2	0	97.8	102	97.8	107	104	93.5	104	99.8	83.4	89.8	99.9	97.9	91.9	103	95.2	106	102	97.6	86.4	77.2	104	109	99.7	97.8	94	> 10	> 10	> 10	> 10	> 10
